One experiment deals with T1, ligand binding domain of human RORγ (Homo sapiens, UniProt P51449).
T1 construct: host or cells: HEK293t
T1 sequence (P51449 269-508 limits assumed): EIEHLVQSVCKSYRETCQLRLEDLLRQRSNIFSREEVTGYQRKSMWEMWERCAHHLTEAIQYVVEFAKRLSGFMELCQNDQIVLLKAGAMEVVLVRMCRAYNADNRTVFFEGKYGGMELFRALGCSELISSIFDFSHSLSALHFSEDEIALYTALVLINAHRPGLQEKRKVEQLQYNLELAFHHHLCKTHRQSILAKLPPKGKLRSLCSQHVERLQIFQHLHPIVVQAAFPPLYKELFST
The experiment is described as follows: RORγ Reporter Assay (Gal4). It counts as cell-based. Particulars: HEK-293T, 1 μM test compound, HEK293t RORγ reporter cells, 24 hour; read-out: Gal4 activity range @ 1 μM (% inhibition). On the procedure: (§1) The activity of the compounds was evaluated using a Fluorescence Polarization (FP) Assay and, RORγ Reporter assay (also referred to as Gal4 assay). The FP assay is an in vitro assay monitoring binding within the ligand binding pocket. The RORγ and the Th17 assays (another suitable assay) are both cell-based assays monitoring functional activity of the compound assayed.
RORγ Reporter Assay (Gal4)
Cell-based RORγ functional assays were performed using a commercially available assay product (INDIGO Biosciences, State College, Pa., USA; product # IB04001). The RORγ reporter cells are HEK293t cells transfected with one vector that provides high level constitutive expression of a hybrid protein comprised of the yeast Gal4-DNA binding domain fused to the ligand binding domain of human RORγ, and a second vector comprising the firefly luciferase cDNA functionally linked to the upstream activation sequence (UAS) of yeast Gal4. A suspension of RORγ Reporter Cells was prepared using the protocol and culture medium provided in the kit product, and 100 μl of the Reporter Cell suspension was then dispensed into wells of a white, collagen-treated, 96-well assay plate. Concentrated stocks of test compounds were prepared in DMSO, then further diluted using media provided in the kit to generate ‘2×-concentration’ treatment media. 100 μl of medium for each respective treatment concentration dispensed into triplicate assay wells, thereby combining with the reporter cells. All media formulations contained 10% charcoal stripped Fetal Bovine Serum, but are otherwise proprietary to INDIGO Biosciences. Final treatment concentrations for each test compound were 1,000 nM and 100 nM, each with 0.1% residual DMSO. Separate control treatments were media supplemented with vehicle only (0.1% DMSO) to determine the constitutive level of RORγ activity in the reporter cells, and the reference inverse-agonist ursolic acid (f.c. 6,000 nM to 8.2 nM in 3-fold decrements) to establish a positive control inverse-agonist dose response. Assay plates were placed in a 37° C., 5% CO2, 85% humidity incubator for 24 hour. Treatment media were then discarded, 100 μl of luciferase detection reagent was added to each well, and relative light units (RLUs) were quantified from each assay well using a plate reading luminometer. Values of average RLU+/−standard deviation were computed for all treatment sets, followed by the calculations of fold-reduction: [Average RLUVehicle/Average RLUTest Cmpd]. Percent-reduction of RORγ activity in response to respective test compound treatments was calculated: [100*(1−[Ave RLUTest Cmpd/Ave RLUVehicle)] where the theoretical minimum reduction (0% reduction) derives from Vehicle treatment only, no treatment compound. In some aspects it may be of interest to provide compounds with selective modulation of RORγ for example compounds that are selective to RORγ over RORα, compounds that are selective for RORγ versus RORPβ, and compounds that are selective for RORγ versus BOTH RORα and RORPβ. It may also be of interest to provide compounds that are selective for RORγ versus further nuclear hormone receptors such as CAR1, FXR, GR, LXRα, LXRβ, PPARα, PXR, RARα, RXRα, TRα, VDR. It is apparent to those skilled in the art that these nuclear hormone receptors are merely examples, and that selectivity against other nuclear receptors may also be of interest. It may for example be of interest to provide compounds that modulate RORγ and one or more further nuclear hormone receptors, as well as compounds that modulate both RORγ and RORα, or RORγ and RORβ. It may also be of interest to provide compounds that modulate RORγ and BOTH RORα and RORP, as well as compounds that modulate both RORγ and one or more further nuclear hormone receptors such as CAR1, FXR, GR, LXRα, LXRβ, PPARα, PXR, RARα, RXRα, TRα, VDR. It is apparent to those skilled in the art that these nuclear hormone receptors are merely examples, and that modulation of even other nuclear receptors may also be of interest. […]
Background: In a reporter assay the amount or activity of a reporter protein is the signal.
In the case of `CS(=O)(=O)CC1(CNc2ncnc(N(Cc3ccc(C(F)(F)F)cc3)C3CC3)c2F)CCOCC1` [Example A49, N6-cyclopropyl-5-fluoro-N4-[[4-(methylsulfonylmethyl)tetrahydro-pyran-4-yl]methyl]-N6-[[4-(trifluoromethyl)phenyl]methyl] pyrimidine-4,6-diamine], the inhibition at 1 µM is > 80%.

Still in this experiment, the particulars now being: RORγ Reporter Assay (Gal4), HEK293t reporter cells, compound at 0.1 μM; values are activity range bounds.
Regarding `CS(=O)(=O)CC1(CNc2ncnc(N(Cc3ccc(C(F)(F)F)cc3)C3CC3)c2F)CCOCC1` [Example A49, N6-cyclopropyl-5-fluoro-N4-[[4-(methylsulfonylmethyl)tetrahydro-pyran-4-yl]methyl]-N6-[[4-(trifluoromethyl)phenyl]methyl] pyrimidine-4,6-diamine], the “Gal4 activity range @ 0.1 μM (% inhibition)” value is >80 % inhibition.

For a further experiment, the target named is T2, human RORγt (Ligand Binding Domain) (Homo sapiens, UniProt P51449).
T2 construct: purchased Crelux (Planegg, Germany) batch no PC5032-1
T2 sequence (P51449 269-508 limits assumed): T1 sequence (P51449 269-508 limits assumed)
Nature of the experiment: Fluorescence Polarization (FP) Assay. To be noted: 100 nM human RORγt LBD, 25 nM TAMRA probe, values are activity range bounds. On the procedure: as §1
Fluorescence Polarization (FP) Assay
The total volume was 25 μl, in a black Perkin Elmer OptiPlate. As negative control, 1 μl DMSO was used. […] The probe is a fluorescently labeled (TAMRA) RORγt ligand identified by Nuevolution with a total molecular weight of 910 g/mole as shown in Graph A in FIG. 1.
As for `Fc1c(NCc2ccsc2)ncnc1N(Cc1ccc(C(F)(F)F)cc1)C1CC1` [Example A21, N6-cyclopropyl-5-fluoro-N4-(3-thienylmethyl)-N6-[[4-(trifluoromethyl)phenyl]methyl] pyrimidine-4,6-diamine], the half-maximal inhibitory concentration (IC50) is < 1 µM. In the case of `OCCC1(CNc2ncnc(N(Cc3ccc(C(F)(F)F)cc3)C3CC3)c2F)CCOCC1` [Example A22, 2-[4-[[[6-[cyclopropyl-[[4-(trifluoromethyl)phenyl]methyl]amino]-5-fluoro-pyrimidin-4-yl]amino]methyl]tetrahydropyran-4-yl]ethanol], the IC50 is < 0.5 µM. Regarding `Fc1c(NCc2ccc(-c3nnn[nH]3)cc2)ncnc1N(Cc1ccc(C(F)(F)F)cc1)C1CC1` [Example A23, N6-cyclopropyl-5-fluoro-N4-[[4-(1H-tetrazol-5-yl)phenyl]methyl]-N6-[[4-(trifluoromethyl)phenyl]methyl] pyrimidine-4,6-diamine], the half-maximal inhibitory concentration (IC50) was < 0.5 µM.

As to `COc1ccc(CN(C)c2ncnc(N(Cc3ccc(C(F)(F)F)cc3)C3CC3)c2F)cn1` [Example A24, N6-cyclopropyl-5-fluoro-N4-[(6-methoxy-3-pyridyl)methyl]-N4-methyl-N6-[[4-(trifluoromethyl)phenyl]methyl] pyrimidine-4,6-diamine], the half-inhibitory concentration (IC50) is < 0.5 µM. On to `COc1ccc(CNc2ncnc(N(Cc3ccc(C(F)(F)F)cc3)C3CC3)c2F)cn1` [Example A25, N6-cyclopropyl-5-fluoro-N4-[(6-methoxy-3-pyridyl)methyl]-N6-[[4-(trifluoromethyl)phenyl]methyl] pyrimidine-4,6-diamine], for which the IC50 was < 0.5 µM. Regarding `OCC1(CNc2ncnc(N(Cc3ccc(C(F)(F)F)cc3)C3CC3)c2F)COC1` [Example A26, [3-[[[6-[cyclopropyl-[[4-(trifluoromethyl)phenyl]methyl]amino]-5-fluoro-pyrimidin-4-yl]amino]methyl]oxetan-3-yl]methanol], the half-inhibitory concentration (IC50) is < 0.5 µM.

As to `CN(C)C(=O)C1(CNc2ncnc(N(Cc3ccc(C(F)(F)F)cc3)C3CC3)c2F)CCCC1` [Example A27, 1-[[[6-[cyclopropyl-[[4-(trifluoromethyl)phenyl]methyl]amino]-5-fluoro-pyrimidin-4-yl]amino]methyl]-N,N-dimethyl-cyclopentanecarboxamide], the IC50 is < 1 µM. `Fc1c(NCC2CCCS2)ncnc1N(Cc1ccc(C(F)(F)F)cc1)C1CC1` (stereo not drawn) [Example A28, N6-cyclopropyl-5-fluoro-N4-(tetrahydrothiophen-2-ylmethyl)-N6-[[4-(trifluoromethyl)phenyl]methyl] pyrimidine-4,6-diamine]: the IC50 was < 1 µM. In the case of `COC1(CNc2ncnc(N(Cc3ccc(C(F)(F)F)cc3)C3CC3)c2F)CCOCC1` [Example A29, N6-cyclopropyl-5-fluoro-N4-[(4-methoxytetrahydropyran-4-yl)methyl]-N6-[[4-(trifluoromethyl)phenyl]methyl] pyrimidine-4,6-diamine], the concentration for half-maximal inhibition (IC50) is < 0.5 µM. For the compound `OC1(CNc2ncnc(N(Cc3ccc(C(F)(F)F)cc3)C3CC3)c2F)CCSCC1` [Example A30, 4-[[[6-[cyclopropyl-[[4-(trifluoromethyl)phenyl]methyl]amino]-5-fluoro-pyrimidin-4-yl]amino]methyl]tetrahydrothiopyran-4-ol], the half-inhibitory concentration (IC50) is < 0.5 µM.

With `CS(=O)(=O)CC1(CNc2ncnc(N(Cc3ccc(C(F)(F)F)cc3)C3CC3)c2F)CCOCC1` [Example A31, N6-cyclopropyl-5-fluoro-N4-[[4-(methylsulfonylmethyl)tetrahydro-pyran-4-yl]methyl]-N6-[[4-(trifluoromethyl)phenyl]methyl] pyrimidine-4,6-diamine], the IC50 is < 0.5 µM. In the case of `CC1CCC(CNc2ncnc(N(Cc3ccc(C(F)(F)F)cc3)C3CC3)c2F)CC1` (stereo not drawn) [Example A32, N6-cyclopropyl-5-fluoro-N4-[(4-methylcyclohexyl)methyl]-N6-[[4-(trifluoromethyl)phenyl]methyl] pyrimidine-4,6-diamine], the IC50 was < 0.5 µM. For the compound `CC(C)C1CCC(CNc2ncnc(N(Cc3ccc(C(F)(F)F)cc3)C3CC3)c2F)CC1` (stereo not drawn) [Example A33, N6-cyclopropyl-5-fluoro-N4-[(4-isopropylcyclohexyl)methyl]-N6-[[4-(trifluoromethyl)phenyl]methyl] pyrimidine-4,6-diamine], the IC50 was < 0.5 µM.

As for `O=S1(=O)CCC(CNc2ncnc(N(Cc3ccc(C(F)(F)F)cc3)C3CC3)c2F)CC1` [Example A34, N6-cyclopropyl-N4-[(1,1-dioxothian-4-yl)methyl]-5-fluoro-N6-[[4-(trifluoromethyl)phenyl]methyl] pyrimidine-4,6-diamine], the IC50 was < 0.5 µM. Take `O=S1(=O)CCOC(CNc2ncnc(N(Cc3ccc(C(F)(F)F)cc3)C3CC3)c2F)C1` (stereo not drawn) [Example A35, N6-cyclopropyl-N4-[(4,4-dioxo-1,4-oxathian-2-yl)methyl]-5-fluoro-N6-[[4-(trifluoromethyl)phenyl]methyl] pyrimidine-4,6-diamine]: the half-inhibitory concentration (IC50) was < 0.5 µM. Regarding `O=C(O)CC1CCC(CNc2ncnc(N(Cc3ccc(C(F)(F)F)cc3)C3CC3)c2F)CC1` (stereo not drawn) [Example A36, 2-[4-[[[6-[cyclopropyl-[[4-(trifluoromethyl)phenyl]methyl]amino]-5-fluoro-pyrimidin-4-yl]amino]methyl]cyclohexyl]acetic acid], the IC50 was < 0.5 µM.

On to `CS(=O)(=O)Cc1ccc(CNc2ncnc(N(Cc3ccc(C(F)(F)F)cc3)C3CC3)c2F)cc1` [Example A37, N4-cyclopropyl-5-fluoro-N6-[[4-(methylsulfonylmethyl)phenyl]methyl]-N4-[[4-(trifluoromethyl)phenyl]methyl] pyrimidine-4,6-diamine], for which the IC50 was < 0.5 µM.

As for `COc1cc(CNc2ncnc(N(Cc3ccc(C(F)(F)F)cc3)C3CC3)c2F)ccn1` [Example A38, N4-cyclopropyl-5-fluoro-N6-[(2-methoxy-4-pyridyl)methyl]-N4-[[4-(trifluoromethyl)phenyl]methyl] pyrimidine-4,6-diamine], the half-inhibitory concentration (IC50) was < 0.5 µM. Same read-out and setting: then `N#Cc1ccc(CNc2ncnc(N(Cc3ccc(C(F)(F)F)cc3)C3CC3)c2F)cc1` [Example A39, 4-[[[6-[cyclopropyl-[[4-(trifluoromethyl)phenyl]methyl]amino]-5-fluoro-pyrimidin-4-yl]amino]methyl]benzonitrile], with < 0.5 µM.

One may read the inhibition as the relative decrease from the control value, in per cent. As usually defined, the IC50 is the concentration needed to halve the response being measured. A lower IC50 goes with greater potency.

The record behind these values is patent publication US10683293B2, “Optionally fused heterocyclyl-substituted derivatives of pyrimidine useful for the treatment of inflammatory, metabolic, oncologic and autoimmune diseases” (NUEVOLUTION A/S, priority 2014, dated 2020).
